≈ marks a conversion by molar mass, not a printed value.
Assays:
[1] = tested on: HL-60; assay: Cytotoxicity against human HL60 cells after 48 hrs by MTT assay; format: functional, cell-based; conditions: HL-60, 48 h
[2] = tested on: HCT-116; assay: Cytotoxicity against human HCT116 cells after 48 hrs by MTT assay; format: functional, cell-based; conditions: HCT-116, 48 h

Compound | IC50 [1] [µg/mL] | IC50 [2] [µg/mL]
COc1ccc(C[C@H]2C(=O)N[C@@H](C)C(=O)N(C)[C@H]3Cc4ccc(cc4)Oc4cc(ccc4OC)C[C@@H](C(=O)N[C@H](C)C(=O)N[C@@H](C)C(=O)N2C)N(C)C3=O)cc1 | 0.0025 (≈ 0.00324 µM) | 0.0033 (≈ 0.00428 µM)
COc1ccc(C[C@H]2C(=O)N[C@@H](C)C(=O)N(C)[C@H]3Cc4ccc(cc4)Nc4cc(ccc4OC)C[C@@H](C(=O)N[C@H](C)C(=O)N[C@@H](C)C(=O)N2C)N(C)C3=O)cc1 | 0.018 (≈ 0.0234 µM) | 0.017 (≈ 0.0221 µM)

— ChEMBL document CHEMBL3091415, “Aza-cycloisodityrosine analogue of RA-VII, an antitumor bicyclic hexapeptide” (Bioorg Med Chem Lett, 2013)
